Data on 1 sequence can be found in US20050277586A1, “Peptide chemically modified with polyethylene glycol” (priority 2002, published 2005).

One experiment deals with plasmid (pUC119). The experiment is described as follows: Binding ability to plasmid (agarose gel electrophoresis). The note with it: charge ratio (±ratio) of 3. As to the method: The plasmid prepared by the procedure described in Example 7 (pUC119; final concentration, 20 μg/mL) and the peptides prepared by the procedure described in Examples 1 to 3 were mixed in 20 mM Tris HCl buffer (pH=7.2) containing 150 mM NaCl at a charge ratio (±ratio) of 0 to 3, and the mixture was allowed to stand at 37° C. for 30 minutes. Electrophoresis was then conducted on 1% agarose gel to thereby determine the binding of the plasmid and the peptide.
The ±ratio (charge ratio) indicated in FIG. 11 is the ratio of the number (+) of the positively-charged groups in the peptide to the number (−) of negatively-charged groups in the plasmid. As evident in FIG. 11, the amount of plasmid that became bound to the peptide increased with the increase in the charge ratio (±ratio), and the plasmid was fully bound to the peptide at a charge ratio (±ratio) of 3. The peptides of SEQ ID NO: 2 to SEQ ID NO: 24 were also found to bind at a charge ratio (±ratio) of 3.

Another experiment concerns T24 cell. Briefly: Luciferase-expressing plasmid introduction into T24 cell. Type of experiment: cell-based, human. The source says:
(§1) A cell line established from monkey kidney (Vero cell) and a human bladder cancer cell (T24 cell) purchased from American Type Culture Collection (ATCC) and human lung cancer cell (A549 cell) purchased from Dainippon Pharmaceutical were inoculated on a 24 well culture plate (manufactured by NALGEN NUNC) at 1×10^5 cells/well. Vero cell and A549 cell were cultivated in DMEM (manufactured by Life Technologies Oriental) supplemented with 10% fetal bovine serum (hereinafter referred to as FBS, manufactured by NICHIREI), and T24 cell was cultivated in McCoy's 5a (manufactured by Life Technologies Oriental) supplemented with 10% FBS in 5% CO2 atmosphere at 37° C. for 24 hours. […] The luciferase activity expressed in the cell was then measured by the method instructed in luciferase assay system (manufactured by Promega). […]
(§2) 20 μL of this cell lysate and 100 μL of the Luciferase Assay Reagent II attached to the kit was added to a fluorescence-measuring plate (Microlite™ 1 plate, manufactured by Dynatech), and after mixing, fluorescence was measured for 1 second by using a multilabel counter (ARVO™ SY1420 MULTILABEL COUNTER, manufactured by Wallac Beltold. […]

Experiment [1] deals with Vero cell. Briefly: Accumulation of FITC-labeled oligonucleotide in cell nucleus. It counts as cell-based, monkey. The settings on record: 300 nM FITC-labeled oligonucleotide, 2.5 μM peptide. On the procedure:
Vero cell was inoculated in the well of a chamber slide (Lab-Tek II chamber slide, size 4 well, manufactured by NALGEN NUNC) at a rate of 1×10^5 cells/well, and the cells were cultivated in DMEM supplemented with 10% FBS in 5% CO2 atmosphere at 37° C. for 24 hours. After removing the medium, opti-MEM containing 300 nM FITC-labeled oligonucleotide prepared in Example 6 and 2.5 μM of the peptide of SEQ ID NO: 1 prepared in Example 1 was added, and the cultivation was continued for 4 hours. The medium was replaced with DMEM supplemented with 10% FBS, and the cultivation was continued in 5% CO2 atmosphere at 37° C. for another 24 hours. After washing the cell with PBS, the cells were fixed by using PBS containing 4% paraformaldehyde, and accumulation of FITC-labeled oligonucleotide in the cell nucleus was confirmed by using a fluorescence microscope (AH-3, manufactured by Olympus). […] On the other hand, accumulation of FITC-labeled oligonucleotide in the cell was not confirmed in the absence of the peptide of SEQ ID NO: 1.

The subject of experiment [2] is Vero cell. Briefly: Luciferase-expressing plasmid introduction into Vero cell. Type of experiment: cell-based, monkey.
Description: as §1, §2

On to “TRYLRIHPRSWVHQIALRLRYLRIHPRSWVHQIALRS [SEQ ID NO: 1]”, for which the “Binding of plasmid to the peptide” value in the experiment with plasmid (pUC119) was “fully bound”. Further, the Luciferase activity with T24 cell is given as 7.8 × 10^3 cps/mg protein; in the experiment on Vero cell [2], 2.5 × 10^6 cps/mg protein. For the same sequence, the “Accumulation of FITC-labeled oligonucleotide in the cell nucleus” value in the experiment with Vero cell [1] was “FITC-labeled oligonucleotide was accumulated in the cell nucleus”.
